What follows are compounds tested against T1, STAT6 (Homo sapiens, UniProt P42226) (assay: Stat6 Degrader Assay (HiBiT based, HeLa LgBiT clone 4.14)). Details: HeLa LgBiT clone 4.14 HiBiT-STAT6, 4-24 h incubation; read-out: STAT6 degradation Emax.
T1 construct: These cells express endogenous STAT6; host or cells: HeLa LgBiT clone 4.14
T1 sequence (P42226 1-847): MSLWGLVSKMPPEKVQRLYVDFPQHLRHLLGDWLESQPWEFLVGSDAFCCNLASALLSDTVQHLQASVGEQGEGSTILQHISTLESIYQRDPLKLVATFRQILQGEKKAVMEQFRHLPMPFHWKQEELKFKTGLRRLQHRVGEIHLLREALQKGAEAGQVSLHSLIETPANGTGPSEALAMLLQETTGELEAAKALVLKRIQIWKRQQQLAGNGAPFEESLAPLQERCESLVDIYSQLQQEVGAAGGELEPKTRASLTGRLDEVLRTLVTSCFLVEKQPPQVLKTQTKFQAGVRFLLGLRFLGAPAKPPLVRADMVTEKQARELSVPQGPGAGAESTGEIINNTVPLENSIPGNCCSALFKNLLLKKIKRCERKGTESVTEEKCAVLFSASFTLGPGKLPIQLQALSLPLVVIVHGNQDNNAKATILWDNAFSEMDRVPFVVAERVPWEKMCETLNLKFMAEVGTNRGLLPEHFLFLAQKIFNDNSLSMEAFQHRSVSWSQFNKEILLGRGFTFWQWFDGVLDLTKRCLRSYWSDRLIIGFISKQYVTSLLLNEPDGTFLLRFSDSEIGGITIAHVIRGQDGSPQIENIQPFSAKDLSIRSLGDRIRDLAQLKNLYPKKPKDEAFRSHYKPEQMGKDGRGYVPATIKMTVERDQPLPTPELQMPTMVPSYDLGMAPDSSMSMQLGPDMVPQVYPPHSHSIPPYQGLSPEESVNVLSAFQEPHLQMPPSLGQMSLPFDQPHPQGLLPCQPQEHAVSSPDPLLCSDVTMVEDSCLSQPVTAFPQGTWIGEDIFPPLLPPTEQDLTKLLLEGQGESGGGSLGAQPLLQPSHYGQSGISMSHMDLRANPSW
Type: cell-based
How it was run: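 HeLa LgBiT clone 4.14 cells with CRISPR HiBiT-tagged endogenous STAT6, 5000 cells/well, compound dosed then incubated 4-24 h at 37° C, 5% CO2. Nano-Glo substrate added, 0.5 h, luminescence read as non-degraded STAT6. Terfenadine 50 μM (cell kill) defines 100% degradation.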

In the case of CNc1ccn(-c2ccnc3c2cc(CN2CCC(c4c(F)cc(C(=O)N5CCC(CN6CCN(c7cc8c(cc7F)n(C7CCC(=O)NC7=O)c(=O)n8C)CC6)CC5)cc4F)CC2)n3C)c(=O)c1F (stereo not drawn) [Example 3u274, 3-(5-(4-((1-(3,5-difluoro-4-(1-((4-(3-fluoro-4-(methylamino)-2-oxopyridin-1 (2H)-yl)-1-methyl-1H-pyrrolo[2,3-b]pyridin-2-yl)methyl)piperidin-4-yl)benzoyl)piperidin-4-yl)methyl)piperazin-1-yl)-6-fluoro-3-methyl-2-oxo-2,3-dihydro-1H-benzo[d]imidazol-1-yl)piperidine-2,6-dione], the Emax was less than 20%.

Same assay, conditions: HeLa LgBiT clone 4.14 HiBiT-STAT6, 4-24 h incubation; values given for compounds with >80% Emax; geometric mean; read-out: STAT6 degradation DC50

Going from CNc1ccn(-c2ccnc3c2cc([C@H](C)N2CC=C(c4c(C)cc(C(=O)N5CCC(CN6CCN(Cc7cc8c(cc7F)n(C7CCC(=O)NC7=O)c(=O)n8C)CC6)CC5)cc4F)CC2)n3C)c(=O)c1 (stereo partly drawn) [Example 3u10, 3-(6-fluoro-5-((4-((1-(3-fluoro-5-methyl-4-(1-((S)-1-(1-methyl-4-(4-(methylamino)-2-oxopyridin-1 (2H)-yl)-1H-pyrrolo[2,3-b]pyridin-2-yl)ethyl)-1,2,3,6-tetrahydropyridin-4-yl)benzoyl)-piperidin-4-yl)methyl)piperazin-1-yl)methyl)-3-methyl-2-oxo-2,3-dihydro-1H-benzo[d]imidazol-1-yl)piperidine-2,6-dione] to CNc1ccn(-c2ccnc3c2cc([C@H](C)N2CC=C(c4c(C)cc(C(=O)N5CCC(CN6CCN(Cc7cc8c(cc7F)n([C@H]7CCC(=O)NC7=O)c(=O)n8C7CC7)CC6)CC5)cc4F)CC2)n3C)c(=O)c1 (single isomer, unassigned) [Example 3u104], the DC50 rises from 0.6 nM to 0.9 nM (1.5-fold).

First: Cc1cc(C(=O)N2CCC(CN3CCN(Cc4ccc5c(c4)n(C)c(=O)n5[C@@H]4CCC(=O)NC4=O)C[C@@H]3C)CC2)cc(F)c1C1CCN(Cc2cc3c(-n4ccc5c(c4=O)CCN5)ccnc3n2C)CC1 (single isomer, unassigned) [Example 3u40]
Second: Cc1cc(C(=O)N2CCC(CN3CCN(Cc4ccc5c(c4)n(C)c(=O)n5[C@H]4CCC(=O)NC4=O)C[C@@H]3C)CC2)cc(F)c1C1CCN(Cc2cc3c(-n4ccc5c(c4=O)CCN5)ccnc3n2C)CC1 (single isomer, unassigned) [Example 3u41]
The DC50 of the first is 2.6-fold lower: 2.3 nM for the first, 6 nM for the second.

Going from CNc1ccn(-c2ccnc3c2cc([C@H](C)N2CC=C(c4c(C)cc(C(=O)N5CCC(CN6CCN(Cc7ccc8c(c7)n(C7CC7)c(=O)n8[C@H]7CCC(=O)NC7=O)C[C@@H]6C)CC5)cc4F)CC2)n3C)c(=O)c1 (single isomer, unassigned) [Example 3u112] to Cc1cc(C(=O)N2CCC(CN3CCN(Cc4ccc5c(c4)n(C4CC4)c(=O)n5[C@H]4CCC(=O)NC4=O)C[C@@H]3C)CC2)cc(F)c1C1=CCN([C@@H](C)c2cc3c(-n4ccc5c(c4=O)CCN5)ccnc3n2C)CC1 (single isomer, unassigned) [Example 3u145], the DC50 rises from 0.5 nM to 2 nM (4-fold).

Compared with CNc1c(F)cn(-c2ccnc3c2cc([C@H](C)N2CC=C(c4c(C)cc(C(=O)N5CCC(CN6CCN(Cc7ccc8c(c7)C7(CC7)C(=O)N8C7CCC(=O)NC7=O)C[C@@H]6C)CC5)cc4F)CC2)n3C)c(=O)c1F (stereo partly drawn) [Example 3u4, 3-(5′-(((S)-4-((1-(4-(1-((S)-1-(4-(3,5-difluoro-4-(methylamino)-2-oxopyridin-1 (2H)-yl)-1-methyl-1H-pyrrolo[2,3-b]pyridin-2-yl)ethyl)-1,2,3,6-tetrahydropyridin-4-yl)-3-fluoro-5-methyl-benzoyl)-piperidin-4-yl)methyl)-3-methylpiperazin-1-yl)methyl)-2′-oxospiro[cyclopropane-1,3′-indolin]-1′-yl)piperidine-2,6-dione], CNc1cc(=O)n(-c2ccnc3c2cc([C@H](C)N2CC=C(c4c(C)cc(C(=O)N5CCC(F)(CC6CCN(c7ccc8c(c7)C7(CC7)C(=O)N8C7CCC(=O)NC7=O)CC6)CC5)cc4F)CC2)n3C)cc1F (stereo partly drawn) [Example 3u21, 3-(5′-(4-((4-fluoro-1-(3-fluoro-4-(1-((S)-1-(4-(5-fluoro-4-(methylamino)-2-oxopyridin-1 (2H)-yl)-1-methyl-1H-pyrrolo[2,3-b]pyridin-2-yl)ethyl)-1,2,3,6-tetrahydropyridin-4-yl)-5-methylbenzoyl)piperidin-4-yl)methyl)piperidin-1-yl)-2′-oxospiro[cyclopropane-1,3′-indolin]-1′-yl)-piperidine-2,6-dione] is 10-fold lower in DC50: 4 nM for the first, 0.4 nM for the second.

CNc1ccn(-c2ccnc3c2cc(CN2CC=C(c4c(F)cc(C(=O)N5CCC(CN6CCN(Cc7ccc8c(c7)n(C)c(=O)n8[C@@H]7CCC(=O)NC7=O)C[C@@H]6C)CC5)cc4F)CC2)n3C)c(=O)c1 (single isomer, unassigned) [Example 3u3] and Cc1cc(C(=O)N2CCC(CN3CCN(Cc4ccc5c(c4)n(C)c(=O)n5C4CCC(=O)NC4=O)C[C@@H]3C)CC2)cc(F)c1C1=CCN(Cc2cc3c(-n4ccc5c(c4=O)CCN5)ccnc3n2C)CC1 (stereo partly drawn) [Example 3u23, 3-(5-(((S)-4-((1-(3-fluoro-5-methyl-4-(1-((1-methyl-4-(4-oxo-1,2,3,4-tetrahydro-5H-pyrrolo[3,2-c]pyridin-5-yl)-1H-pyrrolo[2,3-b]pyridin-2-yl)methyl)-1,2,3,6-tetrahydropyridin-4-yl)benzoyl)piperidin-4-yl)methyl)-3-methylpiperazin-1-yl)methyl)-3-methyl-2-oxo-2,3-dihydro-1H-benzo[d]imidazol-1-yl)piperidine-2,6-dione] are within 1.5-fold of each other in DC50: 1.8 nM for the first, 1.3 nM for the second.

First: CNc1ccn(-c2cccc3c2cc([C@H](C)N2CC=C(c4c(C)cc(C(=O)N5CCC(CN6CCN(Cc7cc8c(cc7F)n([C@H]7CCC(=O)NC7=O)c(=O)n8C7CC7)C[C@@H]6C)CC5)cc4F)CC2)n3C)c(=O)c1 (single isomer, unassigned) [Example 3u167]
Second: CNc1ccn(-c2ccnc3c2cc([C@H](C)N2CC=C(c4c(C)cc(C(=O)N5CCC(CN6CCN(Cc7cc8c(cc7F)n(C7CCC(=O)NC7=O)c(=O)n8C7CC7)CC6)CC5)cc4F)CC2)n3C)c(=O)c1 (stereo partly drawn) [Example 3u103, 3-(3-cyclopropyl-6-fluoro-5-((4-((1-(3-fluoro-5-methyl-4-(1-((S)-1-(1-methyl-4-(4-(methylamino)-2-oxopyridin-1 (2H)-yl)-1H-pyrrolo[2,3-b]pyridin-2-yl)ethyl)-1,2,3,6-tetrahydropyridin-4-yl)benzoyl)piperidin-4-yl)methyl)piperazin-1-yl)methyl)-2-oxo-2,3-dihydro-1H-benzo[d]imidazol-1-yl)piperidine-2,6-dione]
The DC50 of the first is 3.1-fold lower: 0.8 nM for the first, 2.5 nM for the second.

First: Cc1cc(C(=O)N2CCC(CN3CCN(Cc4ccc5c(c4)n(C)c(=O)n5[C@@H]4CCC(=O)NC4=O)C[C@@H]3C)CC2)cc(F)c1C1=CCN([C@@H](C)c2cc3c(-n4ccc5c(c4=O)CCN5)ccnc3n2C)CC1 (single isomer, unassigned) [Example 3u139]
Second: CNc1ccn(-c2ccnc3c2cc([C@H](C)N2CCC(c4c(F)cc(C(=O)N5CCC(CN6CCN(Cc7ccc8c(c7)C(C)(C)C(=O)N8[C@H]7CCC(=O)NC7=O)C[C@@H]6C)CC5)cc4F)CC2)n3C)c(=O)c1 (single isomer, unassigned) [Example 3u81]
The DC50 of the first is 4-fold lower: 0.2 nM for the first, 0.8 nM for the second.

From US20250320206A1, “STAT6 DEGRADERS” (Gilead Sciences, Inc., priority 2024, published 2025)
